{"source": "patent EP1763509B1", "about": "“ALPHA-HELICAL MIMETICS” (THE WALTER AND ELIZA HALL INSTITUTE OF MEDICAL RESEARCH, priority 2004, dated 2006)", "data": [{"biological_target": "T1, Bcl-wΔ29 (Homo sapiens, UniProt Q92843)", "T1 construct": "GST tagged Bclw ΔC29 protein", "T1 sequence (Q92843 1-164 limits assumed)": "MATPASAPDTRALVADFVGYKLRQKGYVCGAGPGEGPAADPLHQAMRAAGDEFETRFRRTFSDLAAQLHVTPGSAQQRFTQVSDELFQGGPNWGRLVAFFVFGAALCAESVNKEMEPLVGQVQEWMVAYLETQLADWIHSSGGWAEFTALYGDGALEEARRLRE", "assay": "Alphascreen GST competition binding assay, benzoylurea compounds vs Biotinylated Bim BH3-26 peptide on GST tagged Bclw ΔC29 protein", "conditions": "GST tagged Bclw ΔC29 protein 0.05 nM, Biotinylated Bim BH3-26 peptide 3.0 nM, 4 hours at room temperature; values marked a tested in a separate experiment; n.b. = not binding in the assay conditions", "units": {"IC50": "µM"}, "values": [{"smiles": "CCCN(C(=O)N[C@@H](CSCc1ccccc1)C(=O)O)C(=O)c1ccc(-c2ccc(F)cc2)cc1", "note": "[(11)]", "IC50": 104}, {"smiles": "O=C(O)[C@H](CSCc1ccccc1)NC(=O)N(Cc1cccnc1)C(=O)c1cccc(-c2ccccc2)c1", "note": "[(12)]", "IC50": 46}, {"smiles": "CCCN(C(=O)N[C@@H](CSCc1ccccc1)C(=O)O)C(=O)c1cccc(-c2cccc3ccccc23)c1", "note": "[(13)]", "IC50": 31}, {"smiles": "CCCN(C(=O)N[C@@H](CSCc1ccccc1)C(=O)O)C(=O)c1cccc(-c2ccc3ccccc3c2)c1", "note": "[(14)]", "IC50": 36}, {"smiles": "CCCN(C(=O)N[C@@H](Cc1ccc(-c2ccccc2)cc1)C(=O)O)C(=O)c1cccc(-c2ccccc2)c1", "note": "[(15)]", "IC50": 41}, {"smiles": "CCCN(C(=O)N[C@@H](CCc1ccccc1)C(=O)O)C(=O)c1cccc(-c2ccccc2)c1", "note": "[(16)]", "IC50": 130}, {"smiles": "CCCN(C(=O)N[C@@H](Cc1ccc2ccccc2c1)C(=O)O)C(=O)c1cccc(-c2ccccc2)c1", "note": "[(17)]", "IC50": 55}, {"smiles": "CCCN(C(=O)N[C@@H](Cc1cccc2ccccc12)C(=O)O)C(=O)c1cccc(-c2ccccc2)c1", "note": "[(18)]", "IC50": 60}, {"smiles": "CCCN(C(=O)N[C@@H](CCCc1ccccc1)C(=O)O)C(=O)c1cccc(-c2ccccc2)c1", "note": "[(19)]", "IC50": 132}, {"smiles": "CCCN(C(=O)N[C@H](CSCc1ccccc1)C(=O)O)C(=O)c1cccc(-c2ccccc2)c1", "note": "[(21)]", "IC50": 84}, {"smiles": "CCCN(C(=O)N[C@@H](CSc1ccccc1)C(=O)O)C(=O)c1cccc(-c2ccccc2)c1", "note": "[(22)]", "IC50": 80}, {"smiles": "CCCN(C(=O)N[C@@H](CSCc1ccccc1)C(=O)O)C(=O)c1ccc(-c2ccccc2)cc1", "note": "[(23)]", "IC50": 76}, {"smiles": "O=C(O)[C@H](CSCc1ccccc1)NC(=O)N(Cc1cccc2ccccc12)C(=O)c1cccc(-c2ccccc2)c1", "note": "[(24)]", "IC50": 31.2}, {"smiles": "CCCN(C(=O)N[C@@H](CSCCc1ccncc1)C(=O)O)C(=O)c1cccc(-c2ccccc2)c1", "note": "[(25)]", "IC50": 261}, {"smiles": "CCCN(C(=O)N[C@@H](Cc1ccccc1)C(=O)O)C(=O)c1cccc(-c2ccccc2)c1", "note": "[(27)]", "IC50": 194}, {"smiles": "CCCN(C(=O)N[C@@H](Cc1ccc(O)cc1)C(=O)O)C(=O)c1cccc(-c2ccccc2)c1", "note": "[(28)]", "IC50": 300}, {"smiles": "CCCN(C(=O)N[C@@H](Cc1c[nH]c2ccccc12)C(=O)O)C(=O)c1cccc(-c2ccccc2)c1", "note": "[(29)]", "IC50": 88}, {"smiles": "CCCN(C(=O)N[C@@H](COCc1ccccc1)C(=O)O)C(=O)c1cccc(-c2ccccc2)c1", "note": "[(30)]", "IC50": 147}, {"smiles": "CCCN(C(=O)N[C@@H](C[S+]([O-])Cc1ccccc1)C(=O)O)C(=O)c1cccc(-c2ccccc2)c1", "note": "(some centres unmarked) [(31)]", "IC50": 165}, {"smiles": "CCCN(C(=O)N[C@@H](CSCc1ccccc1)C(=O)O)C(=O)c1cccc(Cc2ccccc2)c1", "note": "[(33)]", "IC50": 72}, {"smiles": "CCCN(C(=O)N[C@@H](CSCc1ccccc1)C(=O)O)C(=O)c1ccc(Cc2ccccc2)cc1", "note": "[(34)]", "IC50": 72}, {"smiles": "CCCN(C(=O)N[C@@H](CSCc1ccccc1)C(=O)O)C(=O)c1cccc(-c2ccc(F)cc2)c1", "note": "[(35)]", "IC50": 66}, {"smiles": "O=C(O)[C@H](CSCc1ccccc1)NC(=O)N(Cc1cccc2ccccc12)C(=O)c1cccc(-c2ccc(F)cc2)c1", "note": "[(36)]", "IC50": 47}, {"smiles": "O=C(O)[C@H](CSCc1ccccc1)NC(=O)N(CCC1CC1)C(=O)c1cccc(-c2ccccc2)c1", "note": "[(37)]", "IC50": 60}, {"smiles": "Cc1cccc(C)c1C(=O)N(C(=O)N[C@@H](CSCc1ccccc1)C(=O)O)C(C)C", "note": "[(38)]", "IC50": 297}, {"smiles": "CC(C)CCN(C(=O)N[C@@H](CSCc1ccccc1)C(=O)O)C(=O)c1cccc(-c2ccccc2)c1", "note": "[(39)]", "IC50": 50}, {"smiles": "CSCCN(C(=O)N[C@@H](CSCc1ccccc1)C(=O)O)C(=O)c1cccc(-c2ccccc2)c1", "note": "[(40)]", "IC50": 63}, {"smiles": "O=C(O)[C@H](CSCc1ccccc1)NC(=O)N(CCC1CC1)C(=O)c1ccc(-c2ccccc2)cc1", "note": "[(43)]", "IC50": 57}, {"smiles": "CSCCN(C(=O)N[C@@H](CSCc1ccccc1)C(=O)O)C(=O)c1ccc(-c2ccccc2)cc1", "note": "[(45)]", "IC50": 69}, {"smiles": "CCCN(C(=O)N[C@@H](CSCc1ccccc1)C(=O)O)C(=O)c1cccc(-c2ccccc2Cl)c1", "note": "[(46)]", "IC50": 38}, {"smiles": "CCCN(C(=O)N[C@@H](CSCc1ccccc1)C(=O)O)C(=O)c1cccc(-c2ccc(C)cc2)c1", "note": "[(47)]", "IC50": 62}, {"smiles": "CCCN(C(=O)N[C@@H](CSCc1ccccc1)C(=O)O)C(=O)c1ccc(-c2ccccc2Cl)cc1", "note": "[(48)]", "IC50": 68}, {"smiles": "CCCN(C(=O)N[C@@H](CSCc1ccccc1)C(=O)O)C(=O)c1cccc(-c2ccc(OC)cc2)c1", "note": "[(52)]", "IC50": 96}, {"smiles": "CCCN(C(=O)N[C@@H](CSCc1ccccc1)C(=O)O)C(=O)c1cccc(-c2ccc(Cl)c(Cl)c2)c1", "note": "[(58)]", "IC50": 48}, {"smiles": "CCCN(C(=O)N[C@@H](CSCc1ccccc1)C(=O)O)C(=O)c1cccc(-c2ccc(Cl)cc2)c1", "note": "[(59)]", "IC50": 68}, {"smiles": "CCCN(C(=O)N[C@@H](CSCc1ccccc1)C(=O)O)C(=O)c1ccc(-c2ccc(C)cc2)cc1", "note": "[(62)]", "IC50": 48}, {"smiles": "CCCN(C(=O)N[C@@H](CSCc1ccccc1)C(=O)O)C(=O)c1ccc(-c2ccc(OC)cc2)cc1", "note": "[(63)]", "IC50": 136}, {"smiles": "CCCN(C(=O)N[C@@H](CSCc1ccccc1)C(=O)O)C(=O)c1ccc(-c2ccc(Cl)cc2)cc1", "note": "[(64)]", "IC50": 74}, {"smiles": "CCCN(C(=O)N[C@@H](CSCc1ccccc1)C(=O)O)C(=O)c1ccc(-c2ccc(Cl)c(Cl)c2)cc1", "note": "[(65)]", "IC50": 60}, {"smiles": "CCCN(C(=O)N[C@@H](CSCc1ccccc1)C(=O)O)C(=O)c1cccc(C#Cc2ccccc2)c1", "note": "[(66)]", "IC50": 58}, {"smiles": "CCCN(C(=O)N[C@@H](CSCc1ccccc1)C(=O)O)C(=O)c1ccc(C#Cc2ccccc2)cc1", "note": "[(67)]", "IC50": 92}, {"smiles": "CCN(C(=O)N[C@@H](CSCc1ccccc1)C(=O)O)C(=O)c1cccc(-c2ccccc2)c1", "note": "[(70)]", "IC50": 153}, {"smiles": "CCCN(C(=O)NCC(=O)O)C(=O)c1cccc(-c2ccccc2)c1", "note": "[(71)]", "Bcl-wΔ29 IC50 (µM)": "n.b.^b"}, {"smiles": "O=C([C@H](CSCc1ccccc1)NC(=O)N(Cc1cccc2ccccc12)C(=O)c1cccc(-c2ccc(F)cc2)c1)N1CCOCC1", "note": "[(72)]", "Bcl-wΔ29 IC50 (µM)": "n.b.^b"}, {"smiles": "CCCN(C(=O)N[C@@H](CSCc1ccccc1)C(=O)O)C(=O)c1cc(CC(=O)O)cc(-c2ccccc2)c1", "note": "[(81)]", "IC50": 144}]}, {"biological_target": "T2, Bcl-xLΔ25 (Homo sapiens, UniProt Q07817)", "T2 construct": "GST tagged Bcl-xL ΔC25 protein", "T2 sequence (Q07817 1-208 limits assumed, stated change not applied)": "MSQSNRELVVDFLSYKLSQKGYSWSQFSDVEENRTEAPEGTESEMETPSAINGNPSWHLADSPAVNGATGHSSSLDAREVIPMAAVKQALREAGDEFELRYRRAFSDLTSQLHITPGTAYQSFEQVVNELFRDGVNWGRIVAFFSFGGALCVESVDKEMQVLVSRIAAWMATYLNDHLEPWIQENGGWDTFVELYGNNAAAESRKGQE", "assay": "Alphascreen GST competition binding assay, benzoylurea compounds vs Biotinylated Bim BH3-26 peptide on GST tagged Bcl-xL ΔC25 protein", "conditions": "GST tagged Bcl-xL ΔC25 protein 0.6 nM, Biotinylated Bim BH3-26 peptide 5.0 nM, 4 hours at room temperature; n.b. = not binding in the assay conditions", "units": {"IC50": "µM"}, "values": [{"smiles": "CCCN(C(=O)N[C@H](CC(=O)O)Cc1c[nH]c2ccccc12)C(=O)c1cccc(C#Cc2ccccc2)c1", "note": "[(116)]", "IC50": 19}, {"smiles": "CCCN(C(=O)N[C@@H](Cc1csc2ccccc12)C(=O)O)C(=O)c1cccc(C#Cc2ccccc2)c1", "note": "[(117)]", "IC50": 35}, {"smiles": "CCCN(C(=O)N[C@H](CC(=O)O)Cc1ccc2ccccc2c1)C(=O)c1cccc(C#Cc2ccccc2)c1", "note": "[(118)]", "IC50": 34}, {"smiles": "CCCN(C(=O)N[C@H](CC(=O)O)Cc1cccc2ccccc12)C(=O)c1cccc(C#Cc2ccccc2)c1", "note": "[(119)]", "IC50": 67}, {"smiles": "CCCN(C(=O)N[C@@H](CCc1ccccc1)CC(=O)O)C(=O)c1cccc(C#Cc2ccccc2)c1", "note": "[(120)]", "IC50": 44}, {"smiles": "CCCN(C(=O)N[C@@H](CCSC)CC(=O)O)C(=O)c1cccc(C#Cc2ccccc2)c1", "note": "[(121)]", "IC50": 141}, {"smiles": "CCCCSC[C@H](NC(=O)N(CCC)C(=O)c1cccc(C#Cc2ccccc2)c1)C(=O)O", "note": "[(122)]", "IC50": 26}, {"smiles": "CCCCCSC[C@H](NC(=O)N(CCC)C(=O)c1cccc(C#Cc2ccccc2)c1)C(=O)O", "note": "[(123)]", "IC50": 30}, {"smiles": "CCCN(C(=O)N[C@@H](CSCCC(C)C)C(=O)O)C(=O)c1cccc(C#Cc2ccccc2)c1", "note": "[(124)]", "IC50": 33}, {"smiles": "CCCN(C(=O)N[C@@H](CSCC(CC)CC)C(=O)O)C(=O)c1cccc(C#Cc2ccccc2)c1", "note": "[(126)]", "IC50": 90}, {"smiles": "CCCN(C(=O)N[C@@H](CSCC1CCCCC1)C(=O)O)C(=O)c1cccc(C#Cc2ccccc2)c1", "note": "[(127)]", "IC50": 40}]}]}
